Laboratory results as given in ChEMBL document CHEMBL1932982, “Virtual ligand screening of α-glucosidase: Identification of a novel potent noncarbohydrate mimetic inhibitor” (Bioorg Med Chem Lett, 2012).
Active and inactive are the calls of the source. The calls are words filed in the database; no cut-off is given here.

Tests used:
Saccharomyces cerevisiae [1] = assay: Inhibition of Saccharomyces cerevisiae alpha-glucosidase using 4-nitrophenyl alpha-D-glucopyranoside as substrate
Saccharomyces cerevisiae [2] = assay: Irreversible inhibition of Saccharomyces cerevisiae alpha-glucosidase using 4-nitrophenyl alpha-D-glucopyranoside as substrate at 300 uM after 30 mins
Saccharomyces cerevisiae [3] = assay: Time dependent inhibition of Saccharomyces cerevisiae alpha-glucosidase using 4-nitrophenyl alpha-D-glucopyranoside as substrate
[4] = Inhibition of Saccharomyces cerevisiae alpha-glucosidase using 4-nitrophenyl alpha-D-glucopyranoside as substrate preincubated for 120 mins

Row | Compound | inhibition (Saccharomyces cerevisiae [1]) | inhibition (Saccharomyces cerevisiae [2]) | TDI (Saccharomyces cerevisiae [3]) | IC50 [4] [µM]
1 | CC(C)(C)C1CCc2c(sc(NC(=O)CC3SC(N)=NC3=O)c2C#N)C1 (racemic) [listing 1 of 2 here] | Active | Active | Active | –
2 | N#Cc1c(NC(=O)CC2SC(N)=NC2=O)sc2c1CCCCCC2 (single isomer, unassigned; enantiomer 1) | inactive | – | – | –
3 | CC(C)(C)C1CCc2c(sc(NC(=O)CC3SC(N)=NC3=O)c2C#N)C1 (single isomer, unassigned; enantiomer 2) | inactive | – | – | –
4 | N#Cc1c(NC(=O)CC2SC(N)=NC2=O)sc2c1CCCCCC2 (racemic) [listing 1 of 2 here] | – | – | – | 2.47
5 | N#Cc1c(NC(=O)CC2SC(N)=NC2=O)sc2c1CCCCCC2 (single isomer, unassigned; enantiomer 2) | inactive | – | – | –
6 | N#Cc1c(NC(=O)CC2SC(N)=NC2=O)sc2c1CCCCCC2 (racemic) [listing 2 of 2 here] | Active | Active | Active | –
7 | CC(C)(C)C1CCc2c(sc(NC(=O)CC3SC(N)=NC3=O)c2C#N)C1 (racemic) [listing 2 of 2 here] | – | – | – | 27.1
8 | CC(C)(C)C1CCc2c(sc(NC(=O)CC3SC(N)=NC3=O)c2C#N)C1 (single isomer, unassigned; enantiomer 1) | inactive | – | – | –
